Test results as given in US20150140002A1, “USE OF A PCSK9 INHIBITOR TO TREAT […]” (Sanofi, priority 2013, published 2015).

System: patients with primary hypercholesterolemia (heFH and non-FH) who are intolerant to statins
Settings: in vivo

SMILES: CC(C)c1c(C(=O)Nc2ccccc2)c(-c2ccccc2)c(-c2ccc(F)cc2)n1CC[C@@H](O)C[C@@H](O)CC(=O)O [atorvastatin]
- Cardiac disorders (SOC) (human): 2 (3.2%) patients (%)
- Ear and labyrinth disorders (SOC) (human): 1 (1.6%) patients (%)
- General allergic TEAEs (MedDRA SMQ Hypersensitivity) (human): 4 (6.3%) patients (%)
- Investigations (SOC) (human): 3 (4.8%) patients (%)
- Myalgia (human): 27%
- Psychiatric disorders (SOC) (human): 2 (3.2%) patients (%)
- Skeletal muscle-related TEAEs (CMQ preferred term) (human): 25 (39.7%) patients (%)
- TEAEs (human): 54 (85.7%) patients (%)
- Treatment-emergent SAEs (human): 7 (11.1%) patients (%)
- Treatment-emergent injection site reactions (ISRs) (human): 1 (1.6%) patients (%)
- Treatment-emergent neurologic AEs (human): 8 (12.7%) patients (%)
- Treatment-emergent skeletal muscle-related events resulting in early treatment discontinuation (human): 13 (20.6%) patients (%)
- back pain (human): 7.9%
- early termination due to musculoskeletal and connective tissues disorders SOC events (human): 14 [22.2%] patients [%]
- fatigue (human): 7.9%
- headache (human): 6.3%
- insomnia (human): 1 (1.6%) reports (%)
- muscle spasms (human): 11.1%
- muscular weakness (human): 6.3%
- palpitations (human): 0 reports (%)
- paraesthesia (human): 6.3%
- patients who prematurely discontinued study treatment due to a TEAE (human): 16 (25.4%) patients (%)
- patients who prematurely terminated study treatment due to adverse events (human): 16 (25.4%) patients (%)
- rate of AEs (human): 86%
- vertigo (human): 1 (1.6%) reports (%)
- Treatment-emergent neurocognitive disorders: zero
